The values that follow come from patent US6878705B2 (dated 2005).

Usually melting point stands for the temperature of the solid-liquid transition.

As to `CN(Cc1cc2c(=O)c(C(=O)NCc3ccc(C(F)(F)F)cc3)cn(C)c2o1)C[C@@H](O)c1ccco1`, the melting point fell in the range of 113 to 115 °C.
As to `CN(Cc1cc2c(=O)c(C(=O)NCc3ccc(Cl)cc3)cn(C)c2o1)CC(O)c1ccccn1` (stereo not shown) [41], the melting point fell in the range of 130 to 132 °C.
`Cn1cc(C(=O)NCc2ccc(Cl)cc2)c(=O)c2cc(CO)oc21`: the melting point lay in the range of 229 to 230 °C.
The molecule `CC(O)CN(C)Cc1cc2c(=O)c(C(=O)NCc3ccc(Cl)cc3)cn(C)c2o1` (stereo not shown) had a melting point of 152 °C.
In the case of `CN(Cc1cc2c(=O)c(C(=O)NCc3ccc(Cl)cc3)cn(C)c2o1)CC(O)c1ccccn1` (stereo not shown) [42], the melting point was in the range of 133 to 138 °C.
The same measure for `CN(Cc1cc2c(=O)c(C(=O)NCc3ccc(Cl)cc3)cn(C)c2o1)CC(O)c1ccc(O)cc1` (stereo not shown): 117 to 122 °C; for `Cc1cc(C(O)CN(C)Cc2cc3c(=O)c(C(=O)NCc4ccc(Cl)cc4)cn(C)c3o2)oc1C` (stereo not shown): 140 to 140.5 °C; for `CN(Cc1cc2c(=O)c(C(=O)NCc3ccc(Cl)cc3)cn(C)c2o1)CC(O)c1cc2ccccc2o1` (stereo not shown): 176 to 179 °C.
Turning to `Cn1cc(C(=O)NCc2ccc(Cl)cc2)c(=O)c2cc(CCCCO)oc21`, the melting point fell in the range of 157 to 160 °C.
The same measure for `CC(O)CNCc1cc2c(=O)c(C(=O)NCc3ccc(Cl)cc3)cn(C)c2o1` (stereo not shown): 172 to 173 °C.
On to `CN(Cc1cc2c(=O)c(C(=O)NCc3ccc(Cl)cc3)cn(C)c2o1)CC(O)c1ccc2ccccc2n1` (stereo not shown), for which the melting point is 154 to 159 °C (dec.).
Molecule `O=C(NCc1ccc(Cl)cc1)c1cc2c(O)c(C(=O)NCc3ccc(Cl)cc3)cnc2o1` yielded a melting point of 230 to 245 °C.
Take `COc1cccc(C(O)CN(C)Cc2cc3c(=O)c(C(=O)NCc4ccc(Cl)cc4)cn(C)c3o2)c1` (stereo not shown): the melting point is 116 to 120 °C.
Turning to `Cn1cc(C(=O)NCc2ccc(Cl)cc2)c(=O)c2cc(C#CC(O)c3ccccc3)oc21` (stereo not shown), the melting point was 209 to 211 °C (dec.).
For `Cn1cc(C(=O)NCc2ccc(Cl)cc2)c(=O)c2cc(C#CCCCO)oc21`, the melting point is 215 to 219 °C (dec.).
The same measure for `CN(Cc1cc2c(=O)c(C(=O)NCc3ccc(Cl)cc3)cn(C)c2o1)CC(O)c1ccoc1` (stereo not shown): 93 to 97 °C; for `CCN(CC)CCn1cc(C(=O)NCc2ccc(Cl)cc2)c(=O)c2cc(CN3CCOCC3)oc21`: 131 to 134 °C; for `CN(Cc1cc2c(=O)c(C(=O)NCc3ccc(Cl)cc3)cn(C)c2o1)CC(O)c1cccnc1` (stereo not shown): 145 to 149 °C.
For `Cn1cc(C(=O)NCc2ccc(Cl)cc2)c(=O)c2cc(CN3CCC[C@@H]3[C@@H](O)c3ccccc3)oc21` (relative stereo), the melting point is 141 to 150 °C (dec.).
As for `CN(Cc1cc2c(=O)c(C(=O)NCc3ccc(Cl)cc3)cn(C)c2o1)CC(CO)c1ccccc1` (stereo not shown), the melting point fell in the range of 141 to 148 °C.
As to `CN(Cc1cc2c(=O)c(C(=O)NCc3ccc(Cl)cc3)cn(C)c2o1)CC(O)c1cccn1C` (stereo not shown), the melting point was 122 to 124 °C (dec.).
Consider `Cn1cc(C(=O)NCc2ccc(Cl)cc2)c(=O)c2cc(CN3CC[C@@H](O)C3)oc21`, for which the melting point fell in the range of 189 to 190 °C.
The molecule `Cn1cc(C(=O)NCc2ccc(Cl)cc2)c(=O)c2ccoc21` displayed a melting point of 197 to 205 °C.
For the molecule `Cc1ccc(C(O)CN(C)Cc2cc3c(=O)c(C(=O)NCc4ccc(Cl)cc4)cn(C)c3o2)o1` (stereo not shown), the melting point lay in the range of 130 to 132 °C.
Molecule `Cn1cc(C(=O)NCc2ccc(Cl)cc2)c(=O)c2cc(Br)oc21` displayed a melting point of 232 to 233 °C.
On to `CN(Cc1cc2c(=O)c(C(=O)NCc3ccc(Cl)cc3)cn(C)c2o1)CC(O)c1nccs1` (stereo not shown), for which the melting point is 114 to 116 °C.
In turn, `CN(Cc1cc2c(=O)c(C(=O)NCc3ccc(Cl)cc3)cn(C)c2o1)C[C@@H](O)c1ncccn1` showed a melting point of 127 to 129 °C.
In the case of `CN(Cc1cc2c(=O)c(C(=O)NCc3ccc(Cl)cc3)cn(C)c2o1)CC(O)c1ccc(-c2ccccc2)o1` (stereo not shown), the melting point was in the range of 115 to 119 °C.
Take `Cn1cc(C(=O)NCc2ccc(Cl)cc2)c(=O)c2cc(C#CCCO)oc21`: the melting point is 242 to 243 °C (dec.).
Turning to `Cn1cc(C(=O)NCc2ccc(Cl)cc2)c(=O)c2cc(CN3CCOCC3)oc21`, the melting point was in the range of 211 to 212 °C.
Molecule `Cn1cc(C(=O)NCc2ccc(Cl)cc2)c(=O)c2cc(CCCCCO)oc21` yielded a melting point of 151 to 152 °C.
`CN(Cc1cc2c(=O)c(C(=O)NCc3ccc(Cl)cc3)cn(C)c2o1)CC(O)c1ccccc1` (stereo not shown): the melting point was in the range of 118 to 121 °C.
On to `Cn1cc(C(=O)NCc2ccc(Cl)cc2)c(=O)c2cc(C#CCC(O)c3ccccc3)oc21` (stereo not shown), for which the melting point was 202 to 203 °C (dec.).
As for `CN(Cc1cc2c(=O)c(C(=O)NCc3ccc(Cl)cc3)cn(C)c2o1)CC(O)c1ccc(C#N)s1` (stereo not shown), the melting point was 190 to 195 °C (dec.).
Molecule `CN(Cc1cc2c(=O)c(C(=O)NCc3ccc(Cl)cc3)cn(C)c2o1)CC(O)c1cnccn1` (stereo not shown) gave a melting point of 148 to 151 °C.
Consider `CN(Cc1cc2c(=O)c(C(=O)NCc3ccc(Cl)cc3)cn(C)c2o1)CC(O)c1cccs1` (stereo not shown), for which the melting point was 145 to 147 °C.
`O=C(NCc1ccc(Cl)cc1)c1cn(CCc2ccccc2)c2oc(CN3CCOCC3)cc2c1=O`: the melting point fell in the range of 150 to 153 °C.
